Results from patent publication US20220305136A1, “ANTI-CTLA4 CONJUGATES” (Ascendis Pharma Oncology Division A/S, priority 2019, published 2022).

Experiments:
[1] = Plasma pharmacokinetics of CTLA-4 mAB in Wistar rats; assay type: in vivo; conditions: n=3
Description: This study was performed in order to investigate the plasma pharmacokinetics of CTLA-4 mAB in Wistar rats following subcutaneous administration of transient CTLA-4 mAB-linker-hydrogel prodrug 29b or following subcutaneous or intravenous administration of free CTLA-4 mAB. Animals (n=3 per group) received either a single SC injection of a 29b (1 mg/kg CTLA-4 mAB equivalents) in the neck region or a single SC injection in the neck region or IV injection in the tail vein of an CTLA-4 mAB formulation (1 mg/kg CTLA-4 mAB). At selected time points, 200 μL blood were collected in L^1-Heparin tubes and processed to plasma by centrifugation at 3,000 g for 10 minutes at 4° C.
CTLA-4 mAB concentrations in rat plasma were determined with a commercial ELISA setup obtained from BioVision Inc. (CA, USA, order number E4384-100). The manufacturer's instructions were followed with minor changes to the protocol. Specifically, the plasma samples were used undiluted (except for samples above the upper limit of quantification which were diluted with blank plasma prior to the measurement) and the sample incubation time was prolonged to 60 minutes.
Calibration standards of CTLA-4 mAB in blank plasma were prepared as follows: thawed L^1-Heparin Wistar rat plasma was homogenized. The free CTLA-4 mAB formulation was spiked into blank plasma at concentrations between 5,000 ng/mL and 50 ng/mL with additional higher and lower anchor points. These solutions were used for the generation of a calibration curve. Calibration curves were analyzed via a 4-parameter logarithmic fit and 1/Y^2 weighted. The determined CTLA-4 mAB plasma concentrations are depicted in Table 1.

MC38 tumor cells [2] = experiment: In vivo anti-tumor efficacy, MC38 tumor bearing mice (Example 28); set-up: species or system C57BL/6 mice with the human CTLA-4 gene knocked in; conditions: CTLA-4 mAB 4 x 210 μg intraperitoneal days 0, 4, 8, 12, 29b single 840 μg intratumoral
Description: The study was conducted in female C57BL/6 mice with the human CTLA-4 gene knocked into the endogenous CTLA-4 locus with an age of 6-11 weeks at the day of tumor inoculation. This model is also known as a Human Genetically Engineered Mouse Model or HuGEMM. Mice were subcutaneously implanted with 1×10^6 MC38 tumor cells in the right flank. When tumors to be injected were grown to a mean tumor volume of ˜65 mm^3, mice were randomized into treatment cohorts (day 0) and treated with either: 1) a single 50 μL intratumoral injection of control hydrogel 30 or 2) a single 50 μL intratumoral injection of 840 μg of CTLA-4 mAB-linker-hydrogel prodrug 29b or 3) four total 200 μL intraperitoneal doses of 210 μg given on Days 0, 4, 8, and 12 of CTLA-4 mAB. Hydrogels were administered as suspensions in 20 mM succinate, 135 mM NaCl, 0.01% Tween-20, pH 4.0 buffer. Following treatment initiation, anti-tumor efficacy was assessed by determination of tumor volumes at various time points from tumor size measurements with a caliper. Tumor volumes were calculated according to the formula:
Tumor volume=(L×W^2)×0.5 where L is the length of the tumor and W the width (both in mm). Mice were removed from the study once tumors were greater than 3000 mm^3.

blood immune cells = experiment: Flow cytometric profiling of blood immune cells; assay type: in vivo, C57BL/6 mice with the human CTLA4 gene knocked in; conditions: day 7; doses as E70
Description: (§1) The study was conducted in female C57BL/6 mice with the human CTLA4 gene knocked into the endogenous CTLA4 locus with an age of 6-11 weeks at the day of tumor inoculation. This model is also known as a Human Genetically Engineered Mouse Model or HuGEMM. Mice were subcutaneously implanted with 1×10^6 MC38 tumor cells in the right flank. When tumors to be injected were grown to a mean tumor volume of ˜65 mm^3, mice were randomized into treatment cohorts (day 0) and treated with either: 1) a single 50 μL intratumoral injection of control hydrogel 30 or 2) four total 200 μL intraperitoneal doses of 18 μg given on days 0, 4, 8, and 12 of free CTLA-4 mAB, or 3) a single 50 μL intratumoral injection of 840 μg of CTLA-4 mAB-linker-hydrogel prodrug 29b or 3) a single 50 μL intratumoral injection of 72 μg of CTLA-4 mAB-linker-hydrogel prodrug 29c. Hydrogels were administered as suspensions in 20 mM succinate, 135 mM NaCl, 0.01% Tween20, pH 4.0 buffer.
(§2) Mice were sacrificed 7 days after randomization (D0). Following sacrifice, blood, spleen and tumor were isolated. Spleen samples were dissociated mechanically to generate single suspensions. Tumor samples were enzymatically and mechanically dissociated to generate single cell suspensions. Cell suspensions from spleen and tumor were centrifuged at 300 g for 5 minutes and 2×10^6 cells were used for staining. For whole blood, approximately 100 μL was used for staining. Cells were resuspended in FACS buffer with 1 μg/ml Fc-Block and incubated at 4° C. for 10 minutes in the dark. Surface marker antibody mixtures in FACS buffer were added to each sample and samples were incubated in the dark at 4° C. for 30 minutes. Red blood cell lysis buffer (Bio-gems) was added if needed and cells were further incubated at 4° C. for 10 minutes. Cells were washed twice with FACS buffer then fixed and permeabilized for 30 minutes at room temperature with Fix/Perm buffer (eBioscience). Cells were washed twice in Permeabilization Buffer and stained with intracellular antibodies in Permeabilization buffer for 30 minutes at room temperature. Cells were washed twice in FACS buffer and acquired in the presence of 123count Ebeads (eBioscience). After collection, FACS data was analyzed using FlowJo Version 10.6.1. Compensation was digitally adjusted using single antibody-stained beads, single antibody-stained cells, and fluorescence minus one (FMO) controls. CD4^+ T cells were gated as live, intact CD45+ CD3+ CD4+ events. Tregs were gated as the CD25+ FOXP3+ subset of CD4 T cells. CD8^+ T cells were gated as live, intact CD45+ CD3+ CD8+ events. Subgates were then defined using the controls mentioned above. The change in the mean percentage of positive cells for indicated populations relative to control treatment was calculated by the formula: mean percentage of positive cells in treated animals—mean percentage of positive cells in control treated animals.

MC38 tumor cells [3] = experiment: In vivo anti-tumor efficacy, MC38 tumor bearing mice (Example 33); set-up: species or system C57BL/6 mice with the human CTLA4 gene knocked in
Description: The study was conducted in female C57BL/6 mice with the human CTLA4 gene knocked into the endogenous CTLA4 locus with an age of 6-11 weeks at the day of tumor inoculation. This model is also known as a Human Genetically Engineered Mouse Model or HuGEMM. Mice were subcutaneously implanted with 1×10^6 MC38 tumor cells in the right flank. When tumors to be injected were grown to a mean tumor volume of ˜65 mm^3, mice were randomized into treatment cohorts (day 0) and treated with either: 1) a single 50 μL intratumoral injection of control hydrogel 30 or 2) four total 200 μL intraperitoneal doses of 18 μg given on days 0, 4, 8, and 12 of free CTLA-4 mAB, or 3) a single 50 μL intratumoral injection of 840 μg of CTLA-4 mAB-linker-hydrogel prodrug 29b or 3) a single 50 μL intratumoral injection of 72 μg of CTLA-4 mAB-linker-hydrogel prodrug 29c. […] Following treatment initiation, anti-tumor efficacy was assessed by determination of tumor volumes at various time points from tumor size measurements with a caliper. Tumor volumes were calculated according to the formula: Tumor volume=(L×W^2)×0.5 where L is the length of the tumor and W the width (both in mm). […] Percent tumor growth inhibition (TGI) was calculated according to the formula: [1−(Mean Tumor Volume in treated animals)/(Mean Tumor Volume in control animals)]*100.

spleen immune cells = experiment: Flow cytometric profiling of spleen immune cells; assay type: in vivo, C57BL/6 mice with the human CTLA4 gene knocked in; conditions: day 7; doses as E70
Description: as §1, §2

tumor immune cells = experiment: Flow cytometric profiling of tumor immune cells; assay type: in vivo, C57BL/6 mice with the human CTLA4 gene knocked in; conditions: day 7
Description: as §1
as §2, with “CD8^+ T cells were gated as live, intact CD45+ CD3+ CD8+ events. Subgates were then defined using the controls mentioned above.” left out

## CTLA-4 mAB: Monoclonal antibody CTLA-4 mAB (AMO-M6104, CAS No. 477202-00-9) obtained from AbMole Bioscience Inc.
[1]; 1 h, 1 mg/kg CTLA-4 mAB (equivalents), subcutaneous, LLOQ 50 ng/mL
  mean CTLA-4 mAB plasma concentration: 170 ng/mL
[1]; 1 h, 1 mg/kg intravenous
  mean CTLA-4 mAB plasma concentration: 18000 ng/mL
[1]; 4 h, 1 mg/kg CTLA-4 mAB (equivalents), subcutaneous, LLOQ 50 ng/mL
  mean CTLA-4 mAB plasma concentration: 600 ng/mL
[1]; 4 h, 1 mg/kg intravenous
  mean CTLA-4 mAB plasma concentration: 14000 ng/mL
[1]; 24 h, 1 mg/kg CTLA-4 mAB (equivalents), subcutaneous
  mean CTLA-4 mAB plasma concentration: 3700 ng/mL
[1]; 24 h, 1 mg/kg intravenous
  mean CTLA-4 mAB plasma concentration: 9600 ng/mL
[1]; 32 h, 1 mg/kg CTLA-4 mAB (equivalents), subcutaneous
  mean CTLA-4 mAB plasma concentration: 4800 ng/mL
[1]; 32 h, 1 mg/kg intravenous
  mean CTLA-4 mAB plasma concentration: 7500 ng/mL
[1]; 48 h, 1 mg/kg CTLA-4 mAB (equivalents), subcutaneous
  mean CTLA-4 mAB plasma concentration: 6200 ng/mL
[1]; 48 h, 1 mg/kg intravenous
  mean CTLA-4 mAB plasma concentration: 6000 ng/mL
[1]; 72 h, 1 mg/kg CTLA-4 mAB (equivalents), subcutaneous
  mean CTLA-4 mAB plasma concentration: 6900 ng/mL
[1]; 72 h, 1 mg/kg intravenous
  mean CTLA-4 mAB plasma concentration: 4900 ng/mL
[1]; 96 h, 1 mg/kg CTLA-4 mAB (equivalents), subcutaneous
  mean CTLA-4 mAB plasma concentration: 6100 ng/mL
[1]; 96 h, 1 mg/kg intravenous
  mean CTLA-4 mAB plasma concentration: 4000 ng/mL
[1]; 168 h, 1 mg/kg CTLA-4 mAB (equivalents), subcutaneous
  mean CTLA-4 mAB plasma concentration: 5700 ng/mL
[1]; 168 h, 1 mg/kg intravenous
  mean CTLA-4 mAB plasma concentration: 3100 ng/mL
MC38 tumor cells [2]
  Mean Tumor Volume (mm3) Day 20: 60.5 mm3
Blood immune cells
  Increase in Percentage Positive from control hydrogel 30: Blood CD4 of T: 0.53%
  Increase in Percentage Positive from control hydrogel 30: Blood CD25+ of CD4: 2.88%
  Increase in Percentage Positive from control hydrogel 30: Blood CD44++ CD62L− of CD4s: 15.28%
  Increase in Percentage Positive from control hydrogel 30: Blood CD69+ of CD4: 3.35%
  Increase in Percentage Positive from control hydrogel 30: Blood CD69+ of Treg: 3.69%
  Increase in Percentage Positive from control hydrogel 30: Blood ICOS+ of CD4s: 18.80%
  Increase in Percentage Positive from control hydrogel 30: Blood ICOS+ of CD8s: 9.26%
  Increase in Percentage Positive from control hydrogel 30: Blood Ki67+ of CD4s: 14.64%
  Increase in Percentage Positive from control hydrogel 30: Blood Treg of CD4: 2.22%
MC38 tumor cells [3]; day 20, vs control hydrogel 30, doses as E66
  Percent Tumor Growth Inhibition: 97.3%
MC38 tumor cells [3]; day 20, CTLA-4 mAB 4 x 18 μg intraperitoneal days 0, 4, 8, 12, 29b single 840 μg intratumoral, 29c single 72 μg intratumoral
  Mean Tumor Volume (mm3): 57.1 mm3
Spleen immune cells
  Increase in Percentage Positive from control hydrogel 30: Spleen CD4 of T: 4.90%
  Increase in Percentage Positive from control hydrogel 30: Spleen CD25+ of CD4: 4.38%
  Increase in Percentage Positive from control hydrogel 30: Spleen CD69+ of CD4: 8.33%
  Increase in Percentage Positive from control hydrogel 30: Spleen CD69+ of Treg: 9.17%
  Increase in Percentage Positive from control hydrogel 30: Spleen ICOS+ of CD8s: 3.18%
  Increase in Percentage Positive from control hydrogel 30: Spleen Ki67+ of CD4s: 11.75%
  Increase in Percentage Positive from control hydrogel 30: Spleen Ki67+ of Tregs: 16.97%
  Increase in Percentage Positive from control hydrogel 30: Spleen Treg of CD4: 6.64%
Tumor immune cells; CTLA-4 mAB 18 μg doses IP, 29b 840 μg IT, 29c 72 μg IT
  Increase in Percentage Positive from control hydrogel 30: Tumor CD44++ CD62L− of CD4s: 10.73%
Tumor immune cells; doses as E70
  Increase in Percentage Positive from control hydrogel 30: Tumor CD44++ CD62L− of CD8s: 6.51%
  Increase in Percentage Positive from control hydrogel 30: Tumor CD69+ of CD4s: 2.37%
  Increase in Percentage Positive from control hydrogel 30: Tumor ICOS+ of CD4s: 13.77%
